Test results reported in patent US20240252654A1, “IMPROVED SMALL MOLECULES” (University of Dundee, priority 2020, published 2024).
Each block holds one compound with its values, some of them ahead of it.

How the values were obtained:
22Rv1 cells [1] = assay: PARP cleavage immunoblot in 22Rv1 cells; type: cell-based; conditions: 22Rv1, 10 nM, 24 h (MT1, MZ1 up to 48 h)
Method: Next, the inventors assessed the functional effects of SIM1 on the viability of 22Rv1 cancer cells. […] Cells died of apoptosis as indicated by prevented cleavage of PARP upon co-treatment with QVD-OPh, a pan-caspase inhibitor, and not of necroptosis, as shown by co-treatment with Necrostatin-1 (FIG. 3d and FIG. 10a).
Degradation assays. MV4; 11 cells were seeded at 1×10^6 cells/mL of 10 cm dishes 12-24 h before treatment. 22Rv1 and HEK293 cells were seeded at 2.5-6×10^5 cells/well of 6 well plates 12-24 h before treatment. Cells were treated with test compounds with and without inhibitors as indicated or an equivalent volume of DMSO and lysed at the stated time point. For lysis, cells were washed twice in ice cold PBS (Invitrogen) then lysed in 250 μL/plate for MV4; 11 cells or 80 μL/well for 22Rv1 and HEK293 cells of ice cold lysis buffer containing 50 mM Tris hydrochloride pH 7.4, 150 mM sodium chloride, 1 mM EDTA pH 7.4, 1% v/v Triton X-100, 1×Halt™ Protease Inhibitor Cocktail (ThermoFisher). […] Protein concentration was determined by BCA assay (Pierce) and the absorbance at 562 nm measured by spectrophotometry (NanoDrop ND1000). […] Bands were detected using a ChemiDoc MP imaging system (BioRad) and quantified (Image Studio Lite, version 5.2) with normalisation to β-actin and the DMSO control per time point. […]

HiBiT-BRD4 [2] = biological target: T1, HiBiT-BRD4 (Homo sapiens, UniProt O60885); assay: NanoBRET live cell residence time; type: cell-based; conditions: live cells
T1 construct: endogenously HiBiT tag the N-terminal genomic loci of BRD2, BRD3, or BRD4; endogenous in cells; host or cells: HEK293 stably expressing LgBiT, CRISPR/Cas9 edited
Method: (§1) NanoBRET Target Engagement and Residence Time. For target engagement experiments in live and permeabilized cells, CRISPR HiBiT-BRD4 HEK293 cells stably expressing LgBiT were plated into white 96-well tissue culture plates at a density of 2×10^4 cells/well. Cells were equilibrated for 1 h with energy transfer probes and the indicated test compound prior to NanoBRET measurements. NanoBRET tracers were prepared at a working concentration of 20× in tracer dilution buffer (12.5 mM HEPES, 31.25% PEG-400, pH 7.5). NanoBRET BRD Tracer-02 was added to cells at a final concentration of 0.5 μM. To measure NanoBRET in live cells, NanoBRET NanoGlo Substrate and Extracellular NanoLuc Inhibitor (Promega) were added according to the manufacturer's recommended protocol, and filtered luminescence was measured on a GloMax Discover luminometer equipped with 450 nm BP filter (donor) and 600 nm LP filter (acceptor) using 0.3 s integration time. To measure NanoBRET in permeabilized cells, digitonin was added to the cells to a final concentration of 50 μg/mL and Extracellular NIuc inhibitor was omitted during the detection step. […] Cells were incubated in 15 mL conical tubes with caps loosened in a tissue culture incubator for 1 h. Following incubation, cells were spun at 300×g for 5 min, washed once with Opti-MEM, spun a second time at 300×g for 5 min, then resuspended with fresh Opti-MEM before plating at 2×10^4 cells/well. NanoBRET BRD Tracer-02 was added at a final concentration of 0.5 μM cells and kinetic NanoBRET measurements were collected on a GloMax Discover. NanoBRET ratios were expressed in milliBRET units and calculated according to the equation in the NanoBRET Ubiquitination, Ternary Complex and Biosensor Experiments section.

HiBiT-BRD4 [3] = biological target: T1, HiBiT-BRD4; assay: NanoBRET target engagement, permeabilized and live cells; type: cell-based; conditions: for IC80: live cell format, unit given with each value, read-out: IC80 for tracer displacement
Method: Cells were treated with a fluorescent BET tracer, then incubated with the indicated compounds at various concentrations to measure competitive displacement.
as §1

[4] = test system: HiBiT-BRD2, BRD3, and BRD4; assay: Degradation washout experiment, CRISPR HiBiT-BET HEK293 cells; type: cell-based, human; conditions: 100 nM for 3.5 h then washout, monitored 50 h
Method: Media containing the 10 nM and/or 100 nM compounds was removed at 3.5 h, indicated on the graphs, and replaced with media lacking compounds for the remainder of the experiment. Luminescence (RLU) was continuously monitored over a 50 h time period and is plotted normalized to the DMSO control as Fractional RLU.
To assess whether the trivalent PROTAC induced also a more sustained degradation of BET proteins in cells compared to MZ1 or (R,S)-SIM1, degradation washout experiments were performed. CRISPR HiBiT-BET HEK293 cells were treated with equivalent concentration (100 nM) of SIM1, (R,S)-SIM1 and MZ1 compounds for 3.5 h, then media was removed and replaced with media lacking compounds. […] The HiBiT-BET protein levels were continuously monitored from the initial addition of the compounds and immediately after the wash for a total time of 50 h.

BRD2, BRD3 and BRD4 = assay: Immunoblot degradation of BET proteins in HEK293 cells; type: cell-based, human
Method: To evaluate the ability of trivalent compounds to induce intracellular degradation of BET proteins, the inventors first treated human HEK293 cells for 4 hours at 1 μM concentration and assessed levels of BRD2, BRD3 and BRD4 by western blot. […] To confirm the greater activity of VHL-based compounds compared to CRBN-based PROTACs they next used live cell continual luminescent monitoring of CRISPR/Cas9 endogenously tagged HiBiT-BRD4 in HEK293 cells over 24 h^29,31. […] To confirm greater potency of VHL-based compounds, the inventors evaluated growth inhibition profiles of BET-sensitive cancer cell lines MV4; 11 (FIG. 1f), A549 and HL-60 (FIG. 6c) with compound treatments. […] Together, the initial screens support greater activity of structure-guided designed VHL degraders over their homologous CRBN molecules.
Degradation assays. MV4; 11 cells were seeded at 1×10^6 cells/mL of 10 cm dishes 12-24 h before treatment. 22Rv1 and HEK293 cells were seeded at 2.5-6×10^5 cells/well of 6 well plates 12-24 h before treatment. Cells were treated with test compounds with and without inhibitors as indicated or an equivalent volume of DMSO and lysed at the stated time point. For lysis, cells were washed twice in ice cold PBS (Invitrogen) then lysed in 250 μL/plate for MV4; 11 cells or 80 μL/well for 22Rv1 and HEK293 cells of ice cold lysis buffer containing 50 mM Tris hydrochloride pH 7.4, 150 mM sodium chloride, 1 mM EDTA pH 7.4, 1% v/v Triton X-100, 1×Halt™ Protease Inhibitor Cocktail (ThermoFisher). Lysates were sonicated, cleared by centrifugation at 4° C., at 15800×g for 10 mins and the supernatants stored at −80° C. Protein concentration was determined by BCA assay (Pierce) and the absorbance at 562 nm measured by spectrophotometry (NanoDrop ND1000). […] Bands were detected using a ChemiDoc MP imaging system (BioRad) and quantified (Image Studio Lite, version 5.2) with normalisation to β-actin and the DMSO control per time point. […]

22Rv1 cells [5] = assay: Caspase-Glo 3/7 assay; type: cell-based; conditions: 22Rv1, 24 h
Method: Caspase-Glo® 3/7 assays. 22Rv1 cells were seeded at 10,000 cells/well of white 96 well plates (Corning #3917) 12-24 h before treatment with test compounds with and without inhibitors or an equivalent volume of DMSO for 24 h. 100 μL/well of Caspase-Glo@ 3/7 Reagent (Promega) was added and the plate shaken at 500 rpm for 30 seconds. The plate was incubated for 2 h and luminescence measured using a PHERAstar FS plate reader (BMG Labtech).

[6] = test system: VHL and full-length BRD4 WT, N140F, or N433F; assay: Kinetic NanoBRET ternary complex assay, NanoLuc-BRD4 with HaloTag-VHL; type: cell-based, human
Method: NanoBRET Ubiquitination, Ternary Complex, and Biosensor Experiments. For endogenous live cell BET:Ubiquitin and BET:VHL assays, CRISPR HiBiT-BRD2, HiBiT-BRD3, and HiBiT-BRD4 HEK293 cells stably expressing LgBiT were transfected with 2 μg of HaloTag-UBB or HaloTag-VHL vectors in 6-well plates using FuGENE HD (Promega). For full transient NanoBRET experiments with NanoLuc-BRD4 WT, N433F, or N140F mutants, HEK293 cells (8×10^5) were co-transfected with 0.02 μg NanoLuc-BRD4 and 2 μg of HaloTag-VHL vectors. For transient NanoBRET experiments with the BRD4 NL-BD1-BD2-HT biosensor containing either the WT tandem BD1-BD2 domain (AA 44-460) or containing the N433F mutation, HEK293 cells (8×10^5) were transfected with 0.02 μg biosensor plasmid and 2 μg carrier DNA. […] NanoBRET NanoGlo (Promega) substrate was added and BRET was measured two hours post-compound treatment using a GloMax Discover Microplate Reader (Promega). Dual filtered luminescence was collected with a 460/80 nm bandpass filter and a 610 nm long pass filter (acceptor, HaloTag NanoBRET ligand) using an integration time of 0.5 s. For all NanoBRET experiments, background subtracted NanoBRET ratios expressed in milliBRET units were calculated from the equation: […]

MV4; 11 cells = assay: Correlative cell viability in cMyc-HiBiT MV4;11 cells (CellTiter-Glo); type: cell-based; conditions: 1 nM, after 6 h
Method: Monitoring cMyc Loss and Cell Viability in MV4; 11 Cells. CRISPR cMyc-HiBiT MV4; 11 cells (Promega) were plated at a density of 5×10^4 cells per well in solid, white 96-well tissue culture plates (Corning Costar #3917). Following an overnight incubation, they were treated with 1-100 nM concentration of the indicated compounds and at the plotted time points, cMyc levels were determined using luminescent measurement with NanoGlo HiBiT lytic reagent (Promega). Replicate plate of all compound treatments were prepared and at identical timepoints as the protein level measurements, cell viability was measured using Cell-Titer Glo (Promega). Plates were shaken on an orbital shaker for 10-20 min before reading luminescence on a GloMax Discover Microplate Reader (Promega).

Structure (SMILES): Cc1ncsc1-c1ccc(CNC(=O)[C@@H]2C[C@@H](O)CN2C(=O)[C@@H](NC(=O)COCCOCCOCCNC(=O)C[C@@H]2N=C(c3ccc(Cl)cc3)c3c(sc(C)c3C)-n3c(C)nnc32)C(C)(C)C)cc1 [MZ1]
- PARP cleavage / cell death (22Rv1 cells [1]): did not cause observable PARP cleavage
- residence time on BRD4 (HiBiT-BRD4 [2]): residence time between the monovalent and bivalent BET inhibitors
- IC80 (HiBiT-BRD4 [3]): 10000 nM
- BET protein level after washout [4]: greater and occurred faster than those observed with SIM1
- EC50 (22Rv1 cells [5]): 150 nM

Structure (SMILES): Cc1ncsc1-c1ccc(CNC(=O)[C@@H]2C[C@@H](O)CN2C(=O)[C@@H](NC(=O)COCC(C)(COCCOCCOCCNC(=O)C[C@@H]2N=C(c3ccc(Cl)cc3)c3c(sc(C)c3C)-n3c(C)nnc32)COCCOCCOCCNC(=O)C[C@H]2N=C(c3ccc(Cl)cc3)c3c(sc(C)c3C)-n3c(C)nnc32)C(C)(C)C)cc1 (stereo partly drawn) [(R,S)-SIM1]
- BET protein level after washout [4]: greater and occurred faster than those observed with SIM1
- degradation of BRD2, BRD3 and BRD4 by western blot (BRD2, BRD3 and BRD4; HEK293 cells, 1 μM, 4 h): behave similarly to MZ1 and less potently than SIM1

- residence time on BRD4 (HiBiT-BRD4 [2]): identical displacement kinetics as MT1
- cell permeability (HiBiT-BRD4 [3]; inferred from live versus permeabilized cells): readily cell-permeable
- IC80 (HiBiT-BRD4 [3]): 100 nM
- shift of binding affinity to BRD4 compared to MT1 (HiBiT-BRD4 [3]; live cells): 10 ×
Structure (SMILES): Cc1ncsc1-c1ccc(CNC(=O)[C@@H]2C[C@H](O)CN2C(=O)[C@@H](NC(=O)COCC(C)(COCCOCCOCCNC(=O)C[C@@H]2N=C(c3ccc(Cl)cc3)c3c(sc(C)c3C)-n3c(C)nnc32)COCCOCCOCCNC(=O)C[C@@H]2N=C(c3ccc(Cl)cc3)c3c(sc(C)c3C)-n3c(C)nnc32)C(C)(C)C)cc1 [cis-SIM1, N,N′-(11-((2-(((S)-1-((2S,4S)-4-hydroxy-2-((4-(4-methylthiazol-5-yl)benzyl)carbamoyl)pyrrolidin-1-yl)-3,3-dimethyl-1-oxobutan-2-yl)amino)-2-oxoethoxy)methyl)-11-methyl-3,6,9,13,16,19-hexaoxahenicosane-1,21-diyl)bis(2-((S)-4-(4-chlorophenyl)-2,3,9-trimethyl-6H-thieno[3,2-f][1,2,4]triazolo[4,3-a][1,4]diazepin-6-yl)acetamide)]
- ternary complex formation [6]: not
- binding to endogenous HiBiT-BRD4 (HiBiT-BRD4 [3]; permeabilized cells): near-identical binding affinities and IC50 values
- measurable cellular death (MV4; 11 cells): not

- EC50 (22Rv1 cells [5]): 90 nM
Structure (SMILES): Cc1ncsc1-c1ccc([C@H](C)NC(=O)[C@@H]2C[C@@H](O)CN2C(=O)[C@@H](NC(=O)COCCCOCCNC(=O)C[C@@H]2N=C(c3ccc(Cl)cc3)c3c(sc(C)c3C)-n3c(C)nnc32)C(C)(C)C)cc1 [ARV-771]
